Reference: patent publication US4731486A, “Hydroformylation using low volatile phosphine ligands” (Union Carbide Corporation, priority 1986, dated 1988)

Assays:
[1] = Batch hydroformylation of propylene in stirred autoclave (Examples 1, 2, 11, 14, 19)
Procedure: A series of various rhodium complex catalyst precursor solutions consisting essentially of the solubilized reaction product of rhodium dicarbonyl acetylacetonate and various monosulfonated triphenylphosphine metal salt ligands were prepared and employed to hydroformylate propylene into C4 aldehydes in the following manner.
(§1) Each rhodium catalytic precursor solution so prepared was then employed to hydroformylate propylene in a magnetically stirred, 100 mL capacity, stainless steel autoclave which was attached to a gas manifold for introducing gases to the desired partial pressures. The autoclave was also equipped with a pressure calibrator for determining reaction pressure to ±0.01 psia. and a platinum resistance thermometer for determining reactor solution temperatures to ±0.10° C. The reactor was heated externally by two 300 watt heating bands. The reactor solution temperature was controlled by a platinum resistance sensor connected to an external proportional temperature controller for controlling the temperature of the external band heaters.
(§2) In each non-aqueous hydroformylation reaction, about 15 milliliters (about 14 grams) of the rhodium catalytic precursor solution so prepared was charged to the autoclave reactor under nitrogen and heated to the reaction temperature employed (as given in Table 1 below). The reactor was then vented down to 5 psig. and a premixed gas mixture of 1:1:1 carbon monoxide:hydrogen:propylene was introduced into the reactor via the gas manifold (partial pressures given in Table 1) and the propylene so hydroformylated.
(§3) A comparison of the catalytic activity of aqueous and non-aqueous solutions of monosulfonated triphenylphosphine sodium salt ligand promoted catalysts in hydroformylating various molecular weight alphe-olefins was determined as follows.
Both the aqueous and non-aqueous hydroformylation reactions were conducted under identical conditions with regard to temperature, rhodium and ligand concentration, hydrogen and carbon monoxide partial pressure and olefin concentration.

[2] = Batch hydroformylation of butene-1 (Examples 14, 19); conditions: 100° C., 300 ppm Rh
Procedure: as §1, §2
(§4) The hydroformylation reaction rate in gram moles per liter per hour of C4 aldehydes produced was determined from sequential 5 psia. pressure drops in the reactor spanning the nominal operating pressure in the reactor, while the mole ratio of linear (n-butyraldehyde) to branched (2-methylpropionaldehyde) product was measured by gas chromatography and the results are given in Table 1 below.
(§5) The same procedure and conditions employed in Example 1 of preparing various rhodium catalytic precursor solutions using rhodium dicarbonyl acetylacetonate, about a 3:1 (wt.:wt. ratio) mixture of Texanol® and CARBOWAX® TPEG-990 (about 25 wt. %) as the solubilizing agent, and a monosulfonated triphenylphosphine sodium salt ligand having the formula [drawing 26] and hydroformylating an olefin was repeated employing the various rhodium complex catalyst precursor solutions and using different alpha olefins as the hydroformylation feedstocks and the reaction conditions as shown in Table 14 below.
as §3
The same procedure and conditions employed in Example 1 of preparing rhodium catalytic precursor solutions, using rhodium dicarbonyl acetylacetonate, monosulfonated triphenylphosphine sodium salt having the formula as shown in Example 4 in either a non-aqueous organic solubilizing agent solution or water, as given in Table 19 below, and hydroformylating the various alpha-olefins was repeated employing the various rhodium complex precursor solutions and hydroformylation reaction conditions as shown in Table 19 below. Both the aqueous and non-aqueous hydroformylation reactions were conducted under identical conditions with regard to temperature, rhodium and ligand concentration, hydrogen and carbon monoxide partial pressure and olefin concentration.

[3] = Batch hydroformylation of octene-1 (Examples 14, 15, 19)
Procedure: as §1, §2, §4, §5
The same procedure and conditions employed in Example 1 of preparing various rhodium catalytic precursor solutions using rhodium dicarbonyl acethylacetonate, a monosulfonated triphenylphosphine sodium salt ligand having the formula [drawing 27] and various mixtures of Texanol® and varying amounts (about 15 wt. % in Run No. 1 and about 10 wt. % in Run Nos. 2 to 5) of different added solubilizing agents as given in Table 15 below, and hydroformylating octene-1 was repeated employing the various rhodium complex catalyst precursor solutions and the reaction conditions as shown in Table 15 below.
as §3

[4] = Batch hydroformylation of dodecene-1 (Examples 13, 14, 18, 19)
[5] = Batch hydroformylation of tetradecene-1 (Example 14); conditions: Texanol/TPEG-990 3:1; 100° C.; 300 ppm Rh; 8.7 wt. % ligand; 75 psia 4:1 H2:CO
Procedure: as §1
In each non-aqueous hydroformylation reaction, about 15 milliliters (about 14 grams) of the rhodium catalytic precursor solution so prepared was charged to the autoclave reactor under nitrogen and heated to the reaction temperature employed (as given in Table 1 below). […]
as §4, with “below. […]” for “below.”

[6] = Solubility of metal salt ligands in nonanal with added solubilizing agent; format: physicochemical; conditions: 25° C.; nonanal with 1:4 CARBOWAX TPEG-900/TERGITOL NP-9
[7] = Solubility of TPPMS-Na in various aldehydes with solubilizing agent mixture; format: physicochemical; conditions: TERGITOL 24-L-75N/CARBOWAX TPEG-900 (4:1)
Source text: The solubilizing agent mixture was employed in a 1:2 weight:weight ratio with the various aldehydes.

[8] = TERGITOL 15-S-3/CARBOWAX PEG 600/Dimethyl Sulfoxide (4:1:1), 100° C., 200 ppm Rh, 90 psia 1:1:1 H2:CO:C3H6
[9] = TERGITOL 15-S-7/CARBOWAX TPEG 990/N-Methyl Pyrolidone (4:1:1), 100° C., 200 ppm Rh, 90 psia 1:1:1 H2:CO:C3H6
[10] = TERGITOL 15-S-7, 100° C., 200 ppm Rh, 90 psia 1:1:1 H2:CO:C3H6
[11] = TERGITOL 24-L-75N/NIAX PPG 1025 (4:1), 100° C., 200 ppm Rh, 90 psia 1:1:1 H2:CO:C3H6
[12] = TERGITOL NP-4/CARBOWAX TPEG 990 (4:1), 100° C., 200 ppm Rh, 90 psia 1:1:1 H2:CO:C3H6
[13] = TERGITOL NP-9, 100° C., 200 ppm Rh, 90 psia 1:1:1 H2:CO:C3H6
[14] = Texanol/TPEG-990 3:1, 90° C., 300 ppm Rh, 8.7 wt. % ligand, 90 psia 1:1:1 H2:CO:C3H6
[15] = aqueous (water as solvent), 100° C., 300 ppm Rh, 90 psia 1:1:1 H2:CO:Propylene
[16] = non-aqueous (Texanol/Carbowax TPEG990 2.6:1), 100° C., 300 ppm Rh, 90 psia 1:1:1 H2:CO:Propylene
[17] = Texanol/TPEG-990 3:1, 8.7 wt. % ligand, 75 psia 4:1 H2:CO
[18] = aqueous (water as solvent), 90 psia 1:1 H2:CO
[19] = non-aqueous (Texanol/Carbowax TPEG990 2.6:1), 90 psia 1:1 H2:CO
[20] = Texanol/Benzonitrile (8:1), 90° C., 200 ppm Rh, 10 wt. % ligand, 75 psia 4:1 H2:CO
[21] = Texanol/Carbowax PEG 150, 90° C., 200 ppm Rh, 10 wt. % ligand, 75 psia 4:1 H2:CO
[22] = Texanol/Dimethyl Sulfoxide (5.5:1), 90° C., 200 ppm Rh, 10 wt. % ligand, 75 psia 4:1 H2:CO
[23] = Texanol/Niax PPG-1025, 90° C., 200 ppm Rh, 10 wt. % ligand, 75 psia 4:1 H2:CO
[24] = Texanol/Sulfolane (8:1), 90° C., 200 ppm Rh, 10 wt. % ligand, 75 psia 4:1 H2:CO
[25] = Texanol/TPEG-990 3:1, 100° C., 300 ppm Rh, 8.7 wt. % ligand, 75 psia 4:1 H2:CO
[26] = aqueous (water as solvent), 100° C., 300 ppm Rh, 90 psia 1:1 H2:CO
[27] = non-aqueous (Texanol/Carbowax TPEG990 2.6:1), 100° C., 300 ppm Rh, 90 psia 1:1 H2:CO
[28] = 25 ppm Rh, 100 °C, Ligand/Rhodium 10, H2 20, CO 40 psia, 5.0 ml olefin
[29] = 200 ppm Rh, 100 °C, Ligand/Rhodium 100, H2 10, CO 40 psia, 5.0 ml olefin
[30] = 200 ppm Rh, 100 °C, Ligand/Rhodium 100, H2 100, CO 40 psia, 5.0 ml olefin
[31] = 200 ppm Rh, 120 °C, Ligand/Rhodium 200, H2 20, CO 40 psia, 5.0 ml olefin
[32] = 500 ppm Rh, 70 °C, Ligand/Rhodium 50, H2 20, CO 40 psia, 5.0 ml olefin
[33] = heptanal, CARBOWAX PEG-600, 100° C., 200 ppm Rh, 60 psia 2:1 H2:CO, two liquid organic layers
[34] = heptanal, TERGITOL 15-S-3/NIAX PPG-1025/Dimethyl Sulfoxide (4:1:1), 100° C., 200 ppm Rh, 60 psia 2:1 H2:CO
[35] = heptanal, TERGITOL 24-L-75N/CARBOWAX TPEG-990 (4:1), 100° C., 200 ppm Rh, 60 psia 2:1 H2:CO
[36] = heptanal, TERGITOL NP-9, 100° C., 200 ppm Rh, 60 psia 2:1 H2:CO

O=S(=O)([O-])c1cccc(P(c2ccccc2)c2ccccc2)c1.[Na+]
Linear/Branched Aldehyde Mole Ratio ([1]; 200 ppm Rh, about 120 mole equivalents ligand, 100° C., 60 psia 1:1:1 H2:CO:C3H6, Texanol/Carbowax PEG-600 10:1): 6.4 | Reaction Rate (C4 aldehydes) ([1]; 200 ppm Rh, about 120 mole equivalents ligand, 100° C., 60 psia 1:1:1 H2:CO:C3H6, Texanol/Carbowax PEG-600 10:1, average of two runs): 0.28 Gmoles/L/Hr | Linear/Branched Aldehyde Mole Ratio [1, 8]: 5.6 | Reaction Rate (C4 aldehydes) [1, 8]: 0.25 G moles/L/hr | Linear/Branched Aldehyde Mole Ratio [1, 9]: 5.0 | Reaction Rate (C4 aldehydes) [1, 9]: 0.75 G moles/L/hr | Linear/Branched Aldehyde Mole Ratio [1, 10]: 4.7 | Reaction Rate (C4 aldehydes) [1, 10]: 0.49 G moles/L/hr | Linear/Branched Aldehyde Mole Ratio [1, 11]: 5.3 | Reaction Rate (C4 aldehydes) [1, 11]: 0.54 G moles/L/hr | Linear/Branched Aldehyde Mole Ratio [1, 12]: 6.0 | Reaction Rate (C4 aldehydes) [1, 12]: 0.59 G moles/L/hr | Linear/Branched Aldehyde Mole Ratio [1, 13]: 5.1 | Reaction Rate (C4 aldehydes) [1, 13]: 0.67 G moles/L/hr | Linear/Branched Aldehyde Mole Ratio [1, 14]: 5.0 | Reaction Rate [1, 14]: 1.72 G moles/L/hr | Linear/Branched Aldehyde Mole Ratio [1, 15]: 19.3 | Reaction Rate [1, 15]: 0.07 G Moles/L/Hr | Linear/Branched Aldehyde Mole Ratio [1, 16]: 4.8 | Reaction Rate [1, 16]: 2.60 G Moles/L/Hr | Linear/Branched Aldehyde Mole Ratio [2, 17]: 12.8 | Reaction Rate [2, 17]: 5.96 G moles/L/hr | Linear/Branched Aldehyde Mole Ratio [2, 18]: 37.1 | Reaction Rate [2, 18]: 0.44 G Moles/L/Hr | Linear/Branched Aldehyde Mole Ratio [2, 19]: 5.1 | Reaction Rate [2, 19]: 6.94 G Moles/L/Hr | Linear/Branched Aldehyde Mole Ratio [3, 20]: 26.6 | Reaction Rate (C9 aldehydes) [3, 20]: 0.47 G moles/L/hr | Linear/Branched Aldehyde Mole Ratio [3, 21]: 17.6 | Reaction Rate (C9 aldehydes) [3, 21]: 1.12 G moles/L/hr | Linear/Branched Aldehyde Mole Ratio [3, 22]: 18.7 | Reaction Rate (C9 aldehydes) [3, 22]: 0.95 G moles/L/hr | Linear/Branched Aldehyde Mole Ratio [3, 23]: 23.9 | Reaction Rate (C9 aldehydes) [3, 23]: 0.71 G moles/L/hr | Linear/Branched Aldehyde Mole Ratio [3, 24]: 19.1 | Reaction Rate (C9 aldehydes) [3, 24]: 0.98 G moles/L/hr | Linear/Branched Aldehyde Mole Ratio [3, 25]: 14.8 | Reaction Rate [3, 25]: 4.17 G moles/L/hr | Linear/Branched Aldehyde Mole Ratio [3, 26]: 40.9 | Reaction Rate [3, 26]: 0.11 G Moles/L/Hr | Linear/Branched Aldehyde Mole Ratio [3, 27]: 5.8 | Reaction Rate [3, 27]: 2.84 G Moles/L/Hr | Linear/Branched Aldehyde Mole Ratio [4, 28]: 3.4 | Reaction Rate (C13 aldehydes) [4, 28]: 1.37 Gram/Moles L/Hr | Linear/Branched Aldehyde Mole Ratio [4, 29]: 16.9 | Reaction Rate (C13 aldehydes) [4, 29]: 1.13 Gram/Moles L/Hr | Linear/Branched Aldehyde Mole Ratio [4, 30]: 4.1 | Reaction Rate (C13 aldehydes) [4, 30]: 1.41 Gram/Moles L/Hr | Linear/Branched Aldehyde Mole Ratio [4, 31]: 9.56 | Reaction Rate (C13 aldehydes) [4, 31]: 1.24 Gram/Moles L/Hr | Linear/Branched Aldehyde Mole Ratio [4, 32]: 5.5 | Reaction Rate (C13 aldehydes) [4, 32]: 0.51 Gram/Moles L/Hr | Linear/Branched Aldehyde Mole Ratio [4, 25]: 10.8 | Reaction Rate [4, 25]: 1.04 G moles/L/hr | Linear/Branched Aldehyde Mole Ratio [4, 26]: 43.4 | Reaction Rate [4, 26]: 0.03 G Moles/L/Hr | Linear/Branched Aldehyde Mole Ratio [4, 33]: 12.0 | Reaction Rate [4, 33]: 0.72 G moles/L/hr | Linear/Branched Aldehyde Mole Ratio [4, 34]: 13.2 | Reaction Rate [4, 34]: 0.51 G moles/L/hr | Linear/Branched Aldehyde Mole Ratio [4, 35]: 13.6 | Reaction Rate [4, 35]: 0.62 G moles/L/hr | Linear/Branched Aldehyde Mole Ratio [4, 36]: 14.2 | Reaction Rate [4, 36]: 0.77 G moles/L/hr | Linear/Branched Aldehyde Mole Ratio [4, 27]: 6.6 | Reaction Rate [4, 27]: 4.49 G Moles/L/Hr | Linear/Branched Aldehyde Mole Ratio [5]: 12.6 | Reaction Rate [5]: 0.65 G moles/L/hr | Metal Salt Solubility [6]: 25 Wt. % | TPPMS-Na Solubility at 25 deg. C. ([7]; Butyraldehyde): > 20 Weight Percent | TPPMS-Na Solubility at 25 deg. C. ([7]; Heptanal): 18 Weight Percent | TPPMS-Na Solubility at 25 deg. C. ([7]; Nonanal): 12 Weight Percent | TPPMS-Na Solubility at 25 deg. C. ([7]; Tridecanal): 8 Weight Percent | TPPMS-Na Solubility at 25 deg. C. ([7]; Valeraldehyde): > 20 Weight Percent
